In patent US6699681B2, “Endothelin converting enzymes and the amyloid β peptide” (Mayo Foundation for Medical Education and Research, priority 2000, dated 2004):
“Also recorded” adds a separate entry of the source.

Tests used:
[1] = tested on: H4 neuroglioma cells; experiment: Extracellular Aβ after treatment of H4 cells with metalloprotease inhibitors; assay type: cell-based, human
Protocol: Human and guinea pig Aβ40 or Aβ42 was measured in plasma by sandwich ELISA as previously described (Suzuki et al., 1994, Science, 264:1336-1340) using the BAN-50/BA-27 or BAN-50/BC-05 antibody systems, respectively (Takeda; Japan). Hamster Aβ40- or Aβ42-derived from CHO cells was measured using the BNT-77/BA-27 or BNT-77/BC-05 antibody systems, respectively. Aβ concentration in samples was determined by comparison to synthetic Aβ40 or Aβ42 standards (Bachem, Switzerland). Data was obtained from triplicate wells.
In particular, the sandwich ELISA used herein was performed as follows: 96-well microtiter plates were coated overnight at 4° C. with 100 μl of a 5 μg/ml dilution of primary antibody in sodium carbonate coating buffer (SCCB; 0.1 M Na2CO3, pH 9.6). Plates were blocked overnight at 4° C. with 300 μl of BLOCKAGE Solution (PBS+1.0% BLOCKAGE (Snow Brand Milk Products, Japan), 0.05% NaN3, pH 7.4). Samples for analysis and synthetic Aβ standards (Bachem, Switzerland) were diluted in buffer EC (0.02 M NaH2PO4, 0.002 M EDTA, 0.4 M NaCl, 0.2% BSA, 0.05% CHAPS, 0.04% BLOCKAGE, 0.05% NaN3, pH 7.0) and allowed to incubate on the plates overnight at 4° C. Plates were washed twice with PBS (8 mM Na2HPO4, 1.5 mM KH2PO4, 139 mM NaCl, 2.7 mM KCl, pH 7.4) and 100 μl of secondary antibody directly coupled to HRP (EZ-LINK™ Plus Activated Peroxidase kit (contents of kit: peroxidase, 5 M sodium cyanoborohydride solution (NaBH3CN), quenching buffer (3 M ethanolamine, pH 9.0), BupH™ phosphate buffered saline, Buph™ carbonate-bicarbonate buffer), according to manufacturers directions; Pierce Chemical Co., Rockford, Ill.) was allowed to bind either 4 hrs at room temperature or overnight at 4° C. Plates were then washed twice with PBS containing 0.05% Tween 20 followed by two additional washes in PBS. Detection was performed using TMB (3,3′,5,5′-tetramethyl-benzidine) as an HRP substrate according to the manufacturer's specifications (Kirkegaard & Perry Laboratories (KPL), Gaithersburg, Md.) and the reaction stopped by the addition of 100 μl of 1N H3PO4. Plates were read at 450 nm in a SpectraMax Plus spectrophotometer (Molecular Devices; Sunnyvale, Calif.) and analyzed by SOFTmax® PRO software. Aβ40 or Aβ42 were quantitated by comparison with the values obtained for each synthetic Aβ standard from the same plate.
Cells were passaged into 6-well plates one day prior to treatment and grown to confluence. […] After treatment, the culture medium was harvested, spun at 14,000 xg, and the supernatant analyzed for Aβ40 or Aβ42 using sandwich ELISA and for secreted APP using Western blot. […] Bound antibody was detected by incubation with the appropriate HRP-linked secondary antibody (Amersham, Uppsala, Sweden) using ECL™ Western blotting reagents (Amersham) followed by exposure to X-ray film. […]

[2] = tested on: H4 cells; experiment: Removal of synthetic Aβ spiked into culture medium of H4 cells; assay type: cell-based, human; conditions: incubated 6 or 24 hrs, presence vs absence of phosphoramidon
Protocol: Human and guinea pig Aβ40 or Aβ42 was measured in plasma by sandwich ELISA as previously described (Suzuki et al., 1994, Science, 264:1336-1340) using the BAN-50/BA-27 or BAN-50/BC-05 antibody systems, respectively (Takeda; Japan). Hamster Aβ40- or Aβ42-derived from CHO cells was measured using the BNT-77/BA-27 or BNT-77/BC-05 antibody systems, respectively. Aβ concentration in samples was determined by comparison to synthetic Aβ40 or Aβ42 standards (Bachem, Switzerland). Data was obtained from triplicate wells. […] Plates were read at 450 nm in a SpectraMax Plus spectrophotometer (Molecular Devices; Sunnyvale, Calif.) and analyzed by SOFTmax® PRO software. Aβ40 or Aβ42 were quantitated by comparison with the values obtained for each synthetic Aβ standard from the same plate. To exclude the possibility that the phosphoramidon-induced effect was due to inhibition of extracellular degradation and/or internalization of Aβ by H4 cells, synthetic Aβ was spiked into the culture medium, incubated for 6 or 24 hrs, and the amount of synthetic Aβ remaining in the medium was determined by sandwich ELISA. […] Intracellular Aβ has not been convincingly detected in H4 cells, presumably due to rapid secretion of the peptide.

With CC(C)C[C@H](NP(=O)(O)O[C@@H]1O[C@@H](C)[C@H](O)[C@@H](O)[C@H]1O)C(=O)N[C@@H](Cc1c[nH]c2ccccc12)C(=O)O [phosphoramidon] the “Aβ accumulation in parallel culture wells without synthetic Aβ” value ([1]; H4 cells, parallel to the spiking experiment) was “promoting Aβ accumulation”, the “extracellular Aβ accumulation” value ([1]; H4 neuroglioma cells, thiorphan or captopril at concentrations greater than 1000-times the reported IC50 for the target enzymes) was “significant elevation” and the “removal of synthetic Aβ spiked into the culture medium” value [2] was “removed equally; also recorded: not affected”.
